In the assay the test system is IL-2 production. The assay is described as follows: Inhibition of IL-2 production in PHA-activated Jurkat cells (ELISA). In kind it is cell-based. The settings on record: PHA 2.5 μg/mL, IL-2 ELISA. How it is done: Jurkat cells were placed in a 96 well plate (0.5 million cells per well in 1% FBS medium) then a test compound of this invention was added at different concentrations. After 10 minutes, the cells were activated with PHA (final concentration 2.5 μg/mL) and incubated for 20 hours at 37° C. under CO2. The final volume was 200 μL. Following incubation, the cells were centrifuged and the supernatants collected and stored at −70° C. prior to assaying for IL-2 production. A commercial ELISA kit (IL-2 Eli-pair, Diaclone Research, Besancon, France) was used to detect production of IL-2, from which dose response curves were obtained. The IC50 value was calculated as the concentration at which 50% of maximum IL-2 production after stimulation was inhibited versus a non-stimulation control.
(In an ELISA, binding on a coated surface is turned into a signal by an enzyme label.)

Counter-ions that a name gives are not always drawn. Where only a bound is given, the exact number is not on record here.

One may read the IC50 as the concentration that gives 50% inhibition. Read a high IC50 as weaker potency. Compound `CC1=C(c2ccc(NC(=O)c3c(F)cccc3F)cc2)CN(c2nccs2)CC1` [Compound 44, 2,6-Difluoro-N-[4-(1-thiazol-2-yl-4-methyl-1,2,5,6-tetrahydro-pyridin-3-yl)-phenyl]-benzamide] registered a half-maximal inhibitory concentration (IC50) (Homo sapiens, Jurkat, 20 h) of 12 nM.

`COC(=O)N1CCC(C)=C(c2ccc(NC(=O)c3ccncc3F)cc2)C1` [Compound 45, N-[4-(1-methoxycarbonyl-4-methyl-1,2,5,6-tetrahydro-pyridin-3-yl)-phenyl]-3-fluoro-isonicotinamide]: where the note is “Homo sapiens, Jurkat, 20 h”, half-maximal inhibition (IC50) required 248 nM.

`CCOC(=O)N1CCC(C)=C(c2ccc(NC(=O)c3snnc3C)cc2)C1` [Compound 47, 4-Methyl-[1,2,3]thiadiazole-5-carboxylic acid [4-(1-ethoxycarbonyl-4-methyl-1,2,5,6-tetrahydro-pyridin-3-yl)-phenyl]-amide] came in with a concentration for half-maximal inhibition (IC50) (Homo sapiens, Jurkat, 20 h) of 411 nM.

`CCOC(=O)N1CCC(C)=C(c2ccc(NC(=O)c3ccncc3C)cc2)C1` [Compound 48, N-[4-(1-ethoxycarbonyl-4-methyl-1,2,5,6-tetrahydro-pyridin-3-yl)-phenyl]-3-methyl-isonicotinamide] returned a half-maximal inhibitory concentration (IC50) (Homo sapiens, Jurkat, 20 h) of 156 nM.

In turn, `COC(=O)N1CCC(C)=C(c2ccc(NC(=O)c3c(F)cccc3F)cc2)C1` [Compound 49, 2,6-Difluoro-N-[4-(1-methoxycarbonyl-4-methyl-1,2,5,6-tetrahydro-pyridin-3-yl)-phenyl]-benzamide] registered a half-maximal inhibitory concentration (IC50) (Homo sapiens, Jurkat, 20 h) of 16.2 nM.

As to `CCOC(=O)N1CCC(C)=C(c2ccc(NC(=O)c3ccncc3C)cc2)C1` [Compound 50, N-[4-(1-ethoxycarbonyl-4-methyl-1,2,5,6-tetrahydro-pyridin-3-yl)-phenyl]-3-methyl-isonicotinamide, hydrochloride], half-maximal inhibition (20 hours, hydrochloride) (IC50) required 177 nM. In other words, the sub-micromolar range.

With `CC1=C(c2ccc(NC(=O)c3ccncc3C)cc2)CN(C(=O)OCc2ccccc2)CC1` [Compound 51, N-[4-(1-benzyloxycarbonyl-4-methyl-1,2,5,6-tetrahydro-pyridin-3-yl)-phenyl]-3-methyl-isonicotinamide], for the setting “Homo sapiens, Jurkat, 20 h”, inhibition was half-maximal at 153 nM (IC50).

Turning to `CC1=C(c2ccc(NC(=O)c3ccncc3F)cc2)CN(C(=O)Oc2ccc([N+](=O)[O-])cc2)CC1` [Compound 52, N-{4-[1-(4-nitro-phenyloxycarbonyl)-4-methyl-1,2,5,6-tetrahydro-pyridin-3-yl]-phenyl}-3-fluoro-isonicotinamide], the midpoint of inhibition (Homo sapiens, Jurkat, 20 h), the IC50, lay at 651 nM.

As for `C=CCOC(=O)N1CCC(C)=C(c2ccc(NC(=O)c3ccncc3F)cc2)C1` [Compound 53, N-[4-(1-allyloxycarbonyl-4-methyl-1,2,5,6-tetrahydro-pyridin-3-yl)-phenyl]-3-fluoro-isonicotinamide], the IC50 (Homo sapiens, Jurkat, 20 h) is 81.3 nM. Against the preceding compound, the IC50 is about 8-fold lower.

`C=CCOC(=O)N1CCC(c2ccc(NC(=O)c3c(F)cccc3F)cc2)=C(C)C1` [Compound 54, 2,6-Difluoro-N-[4-(1-allyloxycarbonyl-3-methyl-1,2,5,6-tetrahydro-pyridin-4-yl)-phenyl]-benzamide]: the IC50 (Homo sapiens, Jurkat, 20 h) came to 235 nM.

`CC1=C(c2ccc(NC(=O)c3c(F)cccc3F)cc2)CCN(C(=O)Oc2ccccc2)C1` [Compound 55, 2,6-Difluoro-N-[4-(1-phenyloxycarbonyl-3-methyl-1,2,5,6-tetrahydro-pyridin-4-yl)-phenyl]-benzamide] yielded an IC50 (Homo sapiens, Jurkat, 20 h) of 941 nM.

Turning to `CCOC(=O)C1=C(c2ccc(NC(=O)c3c(F)cccc3F)cc2)CCN(C#N)C1` [Compound 56, 2,6-Difluoro-N-[4-(1-cyano-3-ethoxycarbonyl-1,2,5,6-tetrahydro-pyridin-4-yl)-phenyl]-benzamide], the IC50 (Homo sapiens, Jurkat, 20 h) is over 1000 nM.

Consider `CC1=C(c2ccc(NC(=O)c3ccncc3F)cc2)CN(C#N)CC1` [Compound 57], for which the half-maximal inhibitory concentration (IC50) (Homo sapiens, Jurkat, 20 h) was over 1000 nM.

`CC1=C(c2ccc(NC(=O)c3c(F)cccc3F)cc2)CN(C#N)CC1` [Compound 58, 2,6-Difluoro-N-[4-(1-cyano-4-methyl-1,2,5,6-tetrahydro-pyridin-3-yl)-phenyl]-benzamide] registered an IC50 (Homo sapiens, Jurkat, 20 h) of over 1000 nM.

In turn, `CC1=C(c2ccc(NC(=O)c3ccncc3C)cc2)CN(c2nccs2)CC1` [Compound 59, N-[4-(1-thiazol-2-yl-4-methyl-1,2,5,6-tetrahydro-pyridin-3-yl)-phenyl]-3-methyl-isonicotinamide] displayed a 50% inhibitory concentration (IC50) (Homo sapiens, Jurkat, 20 h) of 48.9 nM. In other words, the double-digit nanomolar range.

The compound `CCS(=O)(=O)N1CCC(C)=C(c2ccc(NC(=O)c3ccncc3C)cc2)C1` [Compound 60, N-[4-(1-ethanesulfonyl-4-methyl-1,2,5,6-tetrahydro-pyridin-3-yl)-phenyl]-3-methyl-isonicotinamide] registered an IC50 (Homo sapiens, Jurkat, 20 h) of 229 nM.

In turn, `CC1=C(c2ccc(NC(=O)c3ccncc3C)cc2)CN(S(=O)(=O)c2ccccc2)CC1` [Compound 61, N-[4-(1-phenylsulfonyl-4-methyl-1,2,5,6-tetrahydro-pyridin-3-yl)-phenyl]-3-methyl-isonicotinamide] came in with an IC50 (Homo sapiens, Jurkat, 20 h) of 164 nM.

Under “Homo sapiens, Jurkat, 20 h”, `CC(=O)N1CCC(C)=C(c2ccc(NC(=O)c3c(F)cccc3F)cc2)C1` [Compound 62, 2,6-Difluoro-N-[4-(1-acetyl-4-methyl-1,2,5,6-tetrahydro-pyridin-3-yl)-phenyl]-benzamide] gave a half-maximal inhibitory concentration (IC50) of 431 nM.

With `CC1=C(c2ccc(NC(=O)c3c(F)cccc3F)cc2)CN(C(=O)C2CC2)CC1` [Compound 63, 2,6-Difluoro-N-[4-(1-cyclopropylcarbonyl-4-methyl-1,2,5,6-tetrahydro-pyridin-3-yl)-phenyl]-benzamide], for the setting “Homo sapiens, Jurkat, 20 h”, the IC50 was 182 nM.

For the compound `CC1=C(c2ccc(NC(=O)c3c(F)cccc3F)cc2)CN(C(=O)c2cccnc2)CC1` [Compound 64], the half-maximal inhibitory concentration (IC50) (Homo sapiens, Jurkat, 20 h) worked out at 962 nM. This IC50 is about 5.3-fold higher than that of the compound before.

As for `CC1=C(c2ccc(NC(=O)c3ccncc3F)cc2)CN(c2nccs2)CC1` [Compound 65, N-[4-(1-thiazol-2-yl-4-methyl-1,2,5,6-tetrahydro-pyridin-3-yl)-phenyl]-3-fluoro-isonicotinamide], the IC50 (Homo sapiens, Jurkat, 20 h) worked out at 7.7 nM.

On to `CC1=C(c2ccc(NC(=O)c3ccncc3F)cc2)CN(c2ccccn2)CC1` [Compound 66, N-[4-(1-pyridin-2-yl-4-methyl-1,2,5,6-tetrahydro-pyridin-3-yl)-phenyl]-3-fluoro-isonicotinamide], for which half-maximal inhibition (Homo sapiens, Jurkat, 20 h) (IC50) required 42.1 nM.

`CC1=C(c2ccc(NC(=O)c3c(F)cccc3F)cc2)CN(c2nc3ccccc3o2)CC1` [Compound 68, 2,6-Difluoro-N-[4-(1-benzooxazol-2-yl-4-methyl-1,2,5,6-tetrahydro-pyridin-3-yl)-phenyl]-benzamide] returned an IC50 (Homo sapiens, Jurkat, 20 h) of 95.3 nM. This IC50 is about 2.3-fold higher than that of the compound before.

On to `CC1=C(c2ccc(NC(=O)c3ccncc3F)cc2)CN(CC2CC2)CC1` [Compound 69, N-[4-(1-cyclopropylmethyl-4-methyl-1,2,5,6-tetrahydro-pyridin-3-yl)-phenyl]-3-fluoro-isonicotinamide], for which the IC50 (Homo sapiens, Jurkat, 20 h) was over 1000 nM.

Consider `CC1=C(c2ccc(NC(=O)c3c(F)cccc3F)cc2)CN(c2ncco2)CC1` [Compound 70, 2,6-Difluoro-N-[4-(1-oxazol-2-yl-4-methyl-1,2,5,6-tetrahydro-pyridin-3-yl)-phenyl]-benzamide], for which, where the note is “Homo sapiens, Jurkat, 20 h”, half-maximal inhibition (IC50) was put at 12.4 nM.

Regarding `CC1=C(c2ccc(NC(=O)c3ccncc3F)cc2)CN(c2ncco2)CC1` [Compound 71, N-[4-(1-oxazol-2-yl-4-methyl-1,2,5,6-tetrahydro-pyridin-3-yl)-phenyl]-3-fluoro-isonicotinamide], inhibition (Homo sapiens, Jurkat, 20 h) was half-maximal at 44 nM (IC50).

`CC1=C(c2ccc(NC(=O)c3c(F)cccc3F)nc2)CN(c2nccs2)CC1` [Compound 72, 2,6-Difluoro-N-[5-(1-thiazol-2-yl-4-methyl-1,2,5,6-tetrahydro-pyridin-3-yl)-pyridin-2-yl]-benzamide, hydrochloride]: under “Homo sapiens, Jurkat, 20 h”, the IC50 is 35 nM. This IC50 and that of the compound before are within 1.5-fold of each other.

For `CC1=C(c2ccc(NC(=O)c3c(F)cccc3F)cc2)CN(C(N)=S)CC1` [Compound 73, 2,6-Difluoro-N-[4-(1-thiocarbamoyl-4-methyl-1,2,5,6-tetrahydro-pyridin-3-yl)-phenyl]-benzamide], the IC50 (Homo sapiens, Jurkat, 20 h) stood at 456 nM.

Take `CC1=C(c2ccc(NC(=O)c3ccncc3F)cc2)CN(c2nccs2)CC1` [Compound 74, N-[4-(1-thiazol-2-yl-4-methyl-1,2,5,6-tetrahydro-pyridin-3-yl)-phenyl]-3-fluoro-isonicotinamide, dihydrochloride]: under “20 hours, dihydrochloride”, the half-maximal inhibitory concentration (IC50) came out at 5 nM.

For the setting “20 hours, hydrochloride”, `CC1=C(c2ccc(NC(=O)c3c(F)cccc3F)cc2)CN(c2nccs2)CC1` [Compound 75, 2,6-Difluoro-N-[4-(1-thiazol-2-yl-4-methyl-1,2,5,6-tetrahydro-pyridin-3-yl)-phenyl]-benzamide, hydrochloride] displayed a half-inhibitory concentration (IC50) of 11 nM.

For `CC1=C(c2ccc(NC(=O)c3ncncc3C)cc2)CN(c2nccs2)CC1` [Compound 77, 5-Methyl-pyrimidine-4-carboxylic acid [4-(1-thiazol-2-yl-4-methyl-1,2,5,6-tetrahydro-pyridin-3-yl)-phenyl]-amide], the IC50 (Homo sapiens, Jurkat, 20 h) was found to be 99.3 nM.

The compound `O=CC1=C(c2ccc(NC(=O)c3c(F)cccc3F)cc2)CN(c2nccs2)CC1` [Compound 78, 2,6-Difluoro-N-[4-(1-thiazol-2-yl-4-formyl-1,2,5,6-tetrahydro-pyridin-3-yl)-phenyl]-benzamide] had a half-inhibitory concentration (IC50) (Homo sapiens, Jurkat, 20 h) of 227 nM.

For the compound `CC1=C(c2ccc(NC(=O)c3c(F)cccc3F)cc2)CN(c2nc(C)co2)CC1` [Compound 80, 2,6-Difluoro-N-{4-[1-(4-methyl-oxazol-2-yl)-4-methyl-1,2,5,6-tetrahydro-pyridin-3-yl]-phenyl}-benzamide], half-maximal inhibition (Homo sapiens, Jurkat, 20 h) (IC50) required 98.5 nM. This IC50 is about 2.3-fold lower than that of the compound before.

As to `CC1=C(c2ccc(NC(=O)c3ncncc3C)cc2)CN(c2nc(C)c(C)o2)CC1` [Compound 81, 5-Methyl-pyrimidine-4-carboxylic acid {4-[1-(4,5-dimethyl-oxazol-2-yl)-4-methyl-1,2,5,6-tetrahydro-pyridin-3-yl]-phenyl}-amide], the 50% inhibitory concentration (IC50) (Homo sapiens, Jurkat, 20 h) was over 1000 nM.

Values taken from patent US7816535B2, “Vinyl-phenyl derivatives for inflammation and immune-related uses” (Synta Pharmaceuticals Corp., priority 2006, dated 2010).
